Holding throughout (format): cell-based
One series concerns H460 cell line. Briefly: cells. As to the method: (§1) MTT assay was conducted as previously described.^[ [44] ^] Tumor cell lines (NCI‐H460, NCI‐H838, HT‐1080, MCF‐7, PC‐3, U‐251‐MG, and U‐87 MG) were seeded in 96‐well plates at a density of 8000 cells per well in a volume of 100 µL and cultured for 24 h. Normal cell lines (HaCaT, HMEC‐1, MRC‐5, and HEK‐293) were seeded in 96‐well plates at a density of 10 000 cells per well in a volume of 100 µL and cultured for 48 h. After that, only tumor cell lines were starved with 100 µL of SFM for a further 4–6 h. Subsequently, cells were treated with 100 µL of compound solutions with different concentrations for 24 h. Cells treated with SFM and 0.5% DMSO in SFM served as blank control and growth control, respectively. Ten µL of MTT solution (5 mg mL^−1) was added to each well, followed by an additional incubation period of 2 h for tumor cells and 4 h for normal cells. Finally, the solvent in each well was swapped with 100 µL of DMSO to dissolve the formazan crystals. The absorbance was measured by the plate reader at 570 nm.
(§2) The cell viability was calculated (1) Cellviability%=ODSamplegroup−ODBlank/ODGrowthgroup−ODBlank×100%

The test system of another series is HEK-293 normal cell line. Description: cells. As to the method: as §1, §2
Another series has as its system erythrocytes. The settings on record: red cells of horse, 2 h. As to the method: Defibrinated horse blood (1 mL) was washed 3 times with 0.9% NaCl solution to remove plasma and then resuspended in 20 mL of 0.9% NaCl solution to obtain a red blood cell (RBC) suspension. Aliquots of the RBC suspension (100 µL) were incubated with 100 µL of compound solutions at concentrations ranging from 100 to 1.5625 µM (twofold serial dilution) for 2 h at 37 °C. RBCs treated with 0.9% NaCl solution and 1% Triton X‐100 solution served as blank and positive controls, respectively. Subsequently, the samples were centrifuged at 900 × g for 10 min, and the absorbance of the supernatant was measured at 570 nm.
The hemolysis ratio was calculated as (2) Hemolysis%=ODSamplegroup−ODBlank/ODPositivegroup−ODBlank×100%

Where two headings read alike, the source gives them in different places. Where a SMILES comes first, the peptide text is derived from it. [ ]: non-standard residue; d: D form. The star is where a group is joined. PEG4 = NCCOCCOCCOCCOCCC(=O)O; Piperidide = C1CCN(*)CC1 Bounds are passed on as bounds.

A word on the IC50: it is the concentration needed to halve the response being measured. Take `CC[C@H](C)[C@H](NC(=O)[C@H](CCCCN)NC(=O)[C@@H]1CCCN1C(=O)[C@H](CC(C)C)NC(=O)[C@@H](NC(=O)[C@H](CO)NC(=O)[C@H](CCC(=O)N1CCCCC1)NC(=O)[C@H](CC(C)C)NC(=O)[C@H](CC(=O)O)NC(=O)[C@H](CC(=O)O)NC(=O)[C@H](Cc1ccccc1)NC(=O)[C@@H](NC(=O)[C@H](CCCCN)NC(=O)[C@@H]1CCCN1C(=O)[C@H](Cc1ccccc1)NC(=O)[C@@H](N)Cc1ccccc1)[C@@H](C)CC)[C@@H](C)CC)C(=O)N[C@@H](CC(C)C)C(=O)NCC(=O)NCC(=O)NCC(=O)NCC(=O)NCC(=O)NCC(=O)NCC(=O)NCCOCCOCCOCCOCCC(=O)NCCOCCOCCOCCOCCC(=O)NCCOCCOCCOCCOCCC(=O)NCCOCCOCCOCCOCCC(N)=O` [compound 288] (H-FFPKIFDDLE(Piperidide)SILPKILGGGGGGG[PEG4][PEG4][PEG4][PEG4]-NH2): the 50% inhibitory concentration (IC50) in the series on H460 cell line (24 h) and with HEK-293 normal cell line (24 h) was > 100 µM in each case. The “HC10 (concentration causing 10% of erythrocytes lysis)” value in the series with erythrocytes is >100 µM.

On to `CC(=O)O[C@H]1C(=O)[C@@]2(C)[C@H]([C@H](OC(=O)c3ccccc3)[C@]3(O)C[C@H](OC(=O)[C@H](O)[C@@H](NC(=O)c4ccccc4)c4ccccc4)C(C)=C1C3(C)C)[C@]1(OC(C)=O)CO[C@@H]1C[C@@H]2O` [Paclitaxel, paclitaxel, reference compound], for which the IC50 in the series on H460 cell line (Homo sapiens, NCI-H460, Table S11, MTT, read-out: IC50 Value of chemotherapeutics, H460) was 220 ± 65 µM; in the series with HEK-293 normal cell line (Homo sapiens, HEK293, Table S11, MTT, read-out: IC50 Value of chemotherapeutics, HEK-293), < 7 µM.

On to `N.N.[Cl][Pt][Cl]` [Cisplatin, cisplatin, reference compound], for which the IC50 with H460 cell line (Table S11, MTT, read-out: IC50 Value of chemotherapeutics, H460) turned out to be 203 ± 26.9 µM; with HEK-293 normal cell line (Table S11, MTT, read-out: IC50 Value of chemotherapeutics, HEK-293) it was 162 ± 18.8 µM.

Regarding `CC[C@H](C)[C@H](NC(=O)[C@H](CCCCN)NC(=O)[C@@H]1CCCN1C(=O)[C@H](CC(C)C)NC(=O)[C@@H](NC(=O)[C@H](CO)NC(=O)[C@H](CCC(=O)N1CCCCC1)NC(=O)[C@H](CC(C)C)NC(=O)[C@H](CC(=O)O)NC(=O)[C@H](CC(=O)O)NC(=O)[C@H](Cc1ccccc1)NC(=O)[C@@H](NC(=O)[C@H](CCCCN)NC(=O)[C@@H]1CCCN1C(=O)[C@H](Cc1ccccc1)NC(=O)[C@H](Cc1ccccc1)NC(=O)[C@H](CCCCN)NC(=O)[C@H](C)N)[C@@H](C)CC)[C@@H](C)CC)C(=O)N[C@@H](CC(C)C)C(N)=O` [239-4] (H-AKFFPKIFDDLE(Piperidide)SILPKIL-NH2), the half-inhibitory concentration (IC50) in the series on H460 cell line (24 h) is 22.2 ± 1.06 µM; in the series with HEK-293 normal cell line (24 h), 31.5 ± 4.28 µM. Moreover, the “HC10 (concentration causing 10% of erythrocytes lysis)” value with erythrocytes is recorded as 25.61 µM.

On to `CC[C@H](C)[C@H](NC(=O)[C@H](CCCCN)NC(=O)[C@@H]1CCCN1C(=O)[C@H](CC(C)C)NC(=O)[C@@H](NC(=O)[C@H](CO)NC(=O)[C@H](CCC(=O)N1CCCCC1)NC(=O)[C@H](CC(C)C)NC(=O)[C@H](CC(=O)O)NC(=O)[C@H](CC(=O)O)NC(=O)[C@H](Cc1ccccc1)NC(=O)[C@@H](NC(=O)[C@H](CCCCN)NC(=O)[C@@H]1CCCN1C(=O)[C@H](Cc1ccccc1)NC(=O)[C@H](Cc1ccccc1)NC(=O)[C@@H](NC(=O)[C@H](C)N)[C@@H](C)O)[C@@H](C)CC)[C@@H](C)CC)C(=O)N[C@@H](CC(C)C)C(N)=O` [239-2] (H-ATFFPKIFDDLE(Piperidide)SILPKIL-NH2), for which the IC50 with H460 cell line (24 h) is 36.8 ± 3.25 µM; with HEK-293 normal cell line (24 h) it was 44.8 ± 4.06 µM. Moreover, the “HC10 (concentration causing 10% of erythrocytes lysis)” value with erythrocytes is 57.04 µM.

As to `O=c1[nH]cc(F)c(=O)[nH]1` [5-Fluorouracil, 5-fluorouracil, reference compound], the IC50 was found to be 432 ± 61.2 µM with H460 cell line (Homo sapiens, NCI-H460, read-out: IC50 Value of chemotherapeutics, H460) and 430 ± 40.2 µM with HEK-293 normal cell line (Homo sapiens, HEK293, read-out: IC50 Value of chemotherapeutics, HEK-293).
